One data set is described as follows: stability, expiry date. In kind it is physicochemical. The note with it: identified by State Food and Drug Administration.
A further data set can be described thus: dissolving rate. In kind it is physicochemical.
For data set [1] the following is noted: solution in water containing 0.1 g per 1 ml.
The subject of the next data set is proteus mirabilis. The note with it: cited from earlier work.
A further data set relates to actistaphylococcus. The note with it: cited from earlier work.
The test system of another data set is shigella. The note with it: cited from earlier work.
The test system of the next data set is Gram-positive coccus. Particulars: except enterococcus, methicillin-resistant staphylococcus; cited from earlier work.
Data set [2] concerns Corynebacterium diphtheriae. The note with it: cited from earlier work.
A further data set has as its system neisseria. The note with it: cited from earlier work.
The test system of the next data set is listeria. The note with it: cited from earlier work.
For data set [3], the system named is streptococcus haemolytica. The note with it: cited from earlier work.
The subject of the next data set is Typhoid bacillus. The note with it: cited from earlier work.
The next data set concerns partial E.coli. The note with it: cited from earlier work.
Another data set concerns other enterobacteriaceae. The note with it: cited from earlier work.
The subject of a further data set is Streptococcus pneumoniae. Particulars: cited from earlier work.
A further data set deals with bacillus anthracis. The note with it: cited from earlier work.
A further data set relates to Haemophilus influenzae. Particulars: cited from earlier work.
The next data set deals with klebsiella pneumoniae. Particulars: cited from earlier work.
Data set [4] deals with PPNG (Penicillinase-Producing Neisseria gonorrheae). The note with it: cited from earlier work.
Another data set deals with acinetobacter. The note with it: cited from earlier work.
For a further data set, the system named is P. aeruginosa. Particulars: cited from earlier work.

Turning to `Cc1nnc(SCC2=C(C(=O)[O-])N3C(=O)[C@@H](NC(=O)Cn4cnnn4)[C@H]3SC2)s1.O.O.O.O.O.[Na+]` [cefazolin sodium pentahydrate], the expiry date in “stability, expiry date” is recorded as 24 months. In the data set “dissolving rate”, the dissolving rate result was “rapid dissolving rate”. The pH value in [1] is 4.8-6.3.
For `Cc1nnc(SCC2=C(C(=O)O)N3C(=O)[C@@H](NC(=O)Cn4cnnn4)[C@H]3SC2)s1` [Cefazolin sodium], the antibacterial activity result with proteus mirabilis was “good antibacterial activity”; in the data set with actistaphylococcus, “low antibacterial activity”; in the data set on Gram-positive coccus, “excellent antibacterial activity”; in the data set with partial E.coli, “good antibacterial activity”; with klebsiella pneumoniae, “good antibacterial activity”. For the same molecule, the sensitivity entry in the data set on shigella was “sensitive”; in data set [2], “very sensitive”; in the data set with neisseria it was “sensitive”; with listeria, “very sensitive”; in data set [3] it was “highly sensitive”; with Typhoid bacillus, “sensitive”. In addition, the sensitivity result with other enterobacteriaceae is “resistant”; with Streptococcus pneumoniae, “highly sensitive”; in the data set with bacillus anthracis, “very sensitive”; with Haemophilus influenzae, “intermediate sensitivity”; in data set [4], “resistant”; with acinetobacter, “resistant”. In addition, the sensitivity result with P. aeruginosa is reported as “resistant”.
